Data on 17 compounds can be found in PubChem BioAssay (NCI).

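Five concentrations, 48 hours, 96-well plates. At the TGI there is no net growth.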

Among the test systems are DLD-1 colon; DMS 114 small cell lung; DMS 273 small cell lung; HOP-18 NSCLC; KM20L2 colon; LXFL 529 NSCLC; M19-MEL melanoma; RXF-631 renal; SNB-78 CNS; XF 498 CNS.
Holding throughout (assay): inhibition of tumour cell growth, NCI panel, 48 h

On to `Cc1ccc(NC(=O)CCc2nnc3s/c(=C\c4cccc([N+](=O)[O-])c4)c(=O)n23)cc1`, for which the TGI with DLD-1 colon, with DMS 114 small cell lung, with DMS 273 small cell lung, with HOP-18 NSCLC, in the experiment with KM20L2 colon and in the experiment on LXFL 529 NSCLC was more than 100 µM throughout. Besides, the TGI in the experiment on M19-MEL melanoma, in the experiment with RXF-631 renal, in the experiment with SNB-78 CNS and in the experiment on XF 498 CNS was more than 100 µM each time.

For `Cc1ccc(C(=O)C(c2nc3n(c2O)C(=N)N=N3)c2nc3n(c2O)C(=N)N=N3)cc1` (stereo unspecified), the TGI in the experiment on DLD-1 colon, in the experiment with DMS 114 small cell lung, in the experiment with DMS 273 small cell lung, with KM20L2 colon, in the experiment with LXFL 529 NSCLC and in the experiment on M19-MEL melanoma was more than 100 µM in each case. The TGI in the experiment with SNB-78 CNS and with XF 498 CNS was more than 100 µM throughout.

Take `CC(=O)NNc1nc(C)c(C(/C=C/c2ccc(Cl)cc2)=N\N=C(N)N)s1`: the TGI in the experiment with DLD-1 colon, with DMS 273 small cell lung, in the experiment with KM20L2 colon, in the experiment with LXFL 529 NSCLC, with M19-MEL melanoma and with RXF-631 renal was more than 100 µM each time. Further, the TGI with SNB-78 CNS and with XF 498 CNS was more than 100 µM throughout.

Take `CN1C(=S)CSc2ccccc21`: the TGI in the experiment with DLD-1 colon, in the experiment with DMS 114 small cell lung, in the experiment on DMS 273 small cell lung, in the experiment with KM20L2 colon, with LXFL 529 NSCLC and with M19-MEL melanoma was more than 100 µM in each case. The TGI with SNB-78 CNS and in the experiment on XF 498 CNS was more than 100 µM throughout.

For the compound `Cc1cc(N(CCC#N)CCC#N)ccc1/C=C1N=C(/C=C/c2ccccc2)N(c2ccc(S(N)(=O)=O)cc2)C\1=O`, the TGI in the experiment on DLD-1 colon, in the experiment on DMS 114 small cell lung, with KM20L2 colon, in the experiment on LXFL 529 NSCLC, with M19-MEL melanoma and in the experiment on RXF-631 renal was more than 100 µM in each case. This compound registered a TGI with SNB-78 CNS of more than 100 µM.

`COc1cccc(N2C(=O)/C(=C/c3ccc(N(CCC#N)CCC#N)cc3)N=C2c2cc([N+](=O)[O-])ccc2Cl)c1`: the TGI in the experiment with DLD-1 colon, with DMS 114 small cell lung, in the experiment on DMS 273 small cell lung, in the experiment on HOP-18 NSCLC, with KM20L2 colon and with LXFL 529 NSCLC was more than 100 µM in each case. Besides, the TGI in the experiment on RXF-631 renal and with SNB-78 CNS was more than 100 µM throughout.

Take `N#CCCN(C1=NN(C(=O)CC(=O)Nc2ccc(Cl)cc2)C(c2ccccc2)C1)c1ccc(Cl)cc1` (stereo unspecified): the TGI with DLD-1 colon, in the experiment with DMS 114 small cell lung, with DMS 273 small cell lung, in the experiment on HOP-18 NSCLC, in the experiment with KM20L2 colon and in the experiment on LXFL 529 NSCLC was more than 100 µM throughout. Also, the TGI with M19-MEL melanoma, in the experiment with RXF-631 renal, in the experiment on SNB-78 CNS and in the experiment with XF 498 CNS was more than 100 µM throughout.

`Cc1cc(Cl)ccc1NC(=O)CC1SC(=NC(=O)c2ccccc2Cl)NC1=O` (stereo unspecified): the TGI is 34 µM in the experiment on DLD-1 colon; 41.8 µM in the experiment with DMS 114 small cell lung; 37 µM in the experiment with DMS 273 small cell lung; more than 100 µM in the experiment with KM20L2 colon; 32.3 µM in the experiment with LXFL 529 NSCLC; 35.8 µM in the experiment with M19-MEL melanoma. Besides, the TGI in the experiment with SNB-78 CNS worked out at 50.9 µM; in the experiment on XF 498 CNS, 32.7 µM.

As for `COc1ccc(Cc2cc(OC)c(OC)c(OC)c2)cc1`, the TGI in the experiment on DLD-1 colon, in the experiment with DMS 273 small cell lung, in the experiment on LXFL 529 NSCLC, with M19-MEL melanoma and in the experiment with SNB-78 CNS was more than 100 µM throughout.

For the compound `O=C1N=CN=C2C=CC(Cl)=C(I)C12` (stereo unspecified), the TGI in the experiment on DLD-1 colon, with DMS 114 small cell lung, in the experiment on DMS 273 small cell lung, with KM20L2 colon, in the experiment on LXFL 529 NSCLC and in the experiment with M19-MEL melanoma was more than 100 µM throughout. This compound also registered a TGI in the experiment on XF 498 CNS of more than 100 µM.

For the compound `CO[C@H](C(=O)O[C@H]1C(=O)N2CC[C@@H]3CCC[C@H]1C32C)c1ccccc1` (stereo partly specified), the TGI in the experiment on DLD-1 colon, in the experiment on DMS 114 small cell lung, in the experiment with KM20L2 colon, in the experiment with LXFL 529 NSCLC, in the experiment with M19-MEL melanoma and in the experiment on SNB-78 CNS was more than 100 µM throughout.

Take `O=C1C[C@@H]2[C@@H](CCC23CCCC3)N1`: the TGI in the experiment with DLD-1 colon, in the experiment on DMS 273 small cell lung, with HOP-18 NSCLC, in the experiment with KM20L2 colon, with LXFL 529 NSCLC and with M19-MEL melanoma was more than 100 µM throughout. The same compound yielded a TGI in the experiment on SNB-78 CNS of more than 100 µM.

As to `O=C(CSc1nnc(Cc2ccccc2)o1)Nc1ccc(Cl)cc1[N+](=O)[O-]`, the TGI was 33.9 µM in the experiment on DMS 273 small cell lung; 28.3 µM in the experiment with HOP-18 NSCLC; 45.9 µM with KM20L2 colon; 40.8 µM with LXFL 529 NSCLC; 34.8 µM in the experiment on M19-MEL melanoma; 47.6 µM in the experiment on SNB-78 CNS. In the experiment with XF 498 CNS, this compound displayed a TGI of 31.3 µM.

For the compound `COC(=O)C1CC(c2ccc(Cl)cc2)=NO1` (stereo unspecified), the TGI in the experiment with DLD-1 colon, in the experiment with DMS 114 small cell lung, with DMS 273 small cell lung, in the experiment on HOP-18 NSCLC, with KM20L2 colon and in the experiment on LXFL 529 NSCLC was more than 100 µM in each case. Besides, the TGI with M19-MEL melanoma and in the experiment with SNB-78 CNS was more than 100 µM in each case.

With `CC1OC(OC2C(OC(=O)[C@]34CCC(C)(C)CC3C3=CCC5[C@@]6(C)C[C@H](O)[C@H](OC7OC(COC8OC(CO)C(O)C(O)C8O)C(O)C(O)C7O)[C@@](C)(C(=O)O)C6CC[C@@]5(C)C3(C)CC4)OCC(O)C2O)C(O)C(O)C1OC1OCC(O)C(O)C1O` (stereo partly specified), the TGI with DLD-1 colon, with DMS 114 small cell lung, in the experiment with DMS 273 small cell lung, in the experiment on HOP-18 NSCLC, in the experiment on KM20L2 colon and with M19-MEL melanoma was more than 100 µM in each case. This compound yielded a TGI with SNB-78 CNS of more than 100 µM.

Regarding `N#CC(C(=O)/C(=N/NC(=O)c1ccccc1O)C(C#N)c1ccc(Br)cc1)c1ccc(Br)cc1` (stereo unspecified), the TGI with DLD-1 colon was found to be 25.6 µM; in the experiment on DMS 114 small cell lung it was 33 µM; in the experiment on DMS 273 small cell lung it was 26.8 µM; in the experiment on HOP-18 NSCLC, 20.5 µM; in the experiment with KM20L2 colon it was 29.2 µM; in the experiment on LXFL 529 NSCLC, 13.4 µM. Besides, the TGI came out at 25.2 µM in the experiment on M19-MEL melanoma, 28.5 µM with RXF-631 renal, 25.5 µM in the experiment with SNB-78 CNS and 26.6 µM in the experiment with XF 498 CNS.

For the compound `CN(C)CCCOc1ccc(/C=C2/CCC/C(=C/c3ccc(OCCCN(C)C)cc3)C2=O)cc1`, the TGI with DLD-1 colon was found to be 3.21 µM; in the experiment on DMS 114 small cell lung it was 3.11 µM; in the experiment on DMS 273 small cell lung, 2.96 µM; in the experiment with HOP-18 NSCLC, 12.3 µM; with KM20L2 colon it was 0.537 µM; in the experiment with LXFL 529 NSCLC it was 7.12 µM. In addition, the TGI in the experiment with SNB-78 CNS was determined as 9.06 µM.
